Measured values taken from patent US7723320B2, “Use of estrogen compounds to increase libido in women” (Pantarhei Bioscience B.V., priority 2001, dated 2010).
Values joined by “and” are separate entries in the source; they are usually repeats but may differ in a detail not shown here. Equal entries are not always repeated.

Key:
[1] = test system: ovariectomized adult rats; test: Vaginal cornification bioassay in ovariectomized rats; type: in vivo, rat
Description: Uterine weight increase in the rat is more commonly used as a measure of estrogenicity. […] In the early 1920s it was discovered that follicular fluid from the pig ovary contained a factor(s) that caused cornification/keratinization of the vaginal epithelium in the rat (Allen and Doisy, 1923, JAMA, 81,819-821; Allen and Doisy, 1924, Am. J. Physiol., 69, 577-588). The so-called vaginal cornification response in rats subsequently provided a bioassay for testing estrogenicity. Vaginal epithelial cornification/keratinization in ovariectomized rats can be produced only by compounds considered to be true estrogens (Jones et al, 1973, Fert. Steril. 24, 284-291). […] Adult intact female CD rats were ovariectomized to induce estrogen deficiency. […] Castrate vaginal smears are indicative that complete ovanectomy was achieved. Treatment commenced following completion of the 7 days of smearing (day 0=first day of dosing). Animals were dosed, once daily for 7 consecutive days. Daily vaginal lavages continued to be obtained for 7 days after dosing was initiated in order to detect vaginal cornification, as an indication of an estrogenic response. A drop of vaginal washings was placed on a glass slide and examined by light microscopy to detect the presence or absence of cornified epithelial cells. Vaginal lavages were obtained prior to dosing on days 0-6 and prior to necropsy on day 7. The vaginal cornification bioassay was performed in order to determine the estrogenic profile of E4 when given subcutaneously (sc) to ovariectomized adult rats. E2 was used as a positive control. […] The vaginal cornification bioassay was performed in order to determine the estrogenic profile of E4 when given orally (po) to ovariectomized adult rats. EE was used as a positive control. […] A vaginal estrogenic response occurred in all rats (8/8) given 50 μg/kg/day EE po by day 7 (Table 2).

[2] = test system: estrogen receptors in the human endometrium; details: Tseng et al., 1978; cited from earlier work
[3] = molecular target: T1, estrogen receptor in the human endometrium (Homo sapiens, UniProt P03372); details: Tseng et al., 1976; cited from earlier work
T1 construct: estrogen receptors in the human endometrium; host or cells: human endometrium (nuclei)
T1 sequence (P03372 1-595): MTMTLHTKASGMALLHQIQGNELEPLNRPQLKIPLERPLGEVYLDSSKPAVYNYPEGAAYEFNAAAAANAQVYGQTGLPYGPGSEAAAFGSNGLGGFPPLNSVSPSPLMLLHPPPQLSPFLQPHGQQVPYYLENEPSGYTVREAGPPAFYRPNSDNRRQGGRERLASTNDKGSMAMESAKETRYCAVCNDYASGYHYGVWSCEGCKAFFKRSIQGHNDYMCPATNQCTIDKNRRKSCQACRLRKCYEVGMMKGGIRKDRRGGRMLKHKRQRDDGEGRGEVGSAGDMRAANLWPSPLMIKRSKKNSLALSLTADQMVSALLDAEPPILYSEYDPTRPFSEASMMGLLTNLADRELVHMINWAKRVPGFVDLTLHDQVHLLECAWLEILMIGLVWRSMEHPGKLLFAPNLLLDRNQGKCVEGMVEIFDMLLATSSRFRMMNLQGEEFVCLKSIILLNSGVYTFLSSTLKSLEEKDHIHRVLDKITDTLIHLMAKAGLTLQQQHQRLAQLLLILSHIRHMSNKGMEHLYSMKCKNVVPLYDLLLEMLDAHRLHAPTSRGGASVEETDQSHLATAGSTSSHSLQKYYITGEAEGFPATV

C[C@]12CC[C@@H]3c4ccc(O)cc4CC[C@H]3[C@@H]1[C@@H](O)[C@@H](O)[C@@H]2O [E4, 1,3,5(10)-estratrien-3,15α,16α,17β-tetrol]
Number of Rats Exhibiting Estrogenic Response/Number of Rats Treated ([1]; po, 0.1 mg/kg/day, Day 0): 0/8 | Number of Rats Exhibiting Estrogenic Response/Number of Rats Treated ([1]; po, 0.1 mg/kg/day, Day 1): 0/8 | Number of Rats Exhibiting Estrogenic Response/Number of Rats Treated ([1]; po, 0.1 mg/kg/day, Day 2): 1/8 | Number of Rats Exhibiting Estrogenic Response/Number of Rats Treated ([1]; po, 0.1 mg/kg/day, Day 3): 7/8 | Number of Rats Exhibiting Estrogenic Response/Number of Rats Treated ([1]; po, 0.1 mg/kg/day, Day 4): 8/8 | Number of Rats Exhibiting Estrogenic Response/Number of Rats Treated ([1]; po, 0.1 mg/kg/day, Day 5): 8/8 | Number of Rats Exhibiting Estrogenic Response/Number of Rats Treated ([1]; po, 0.1 mg/kg/day, Day 6): 8/8 | Number of Rats Exhibiting Estrogenic Response/Number of Rats Treated ([1]; po, 0.1 mg/kg/day, Day 7): 8/8 | Number of Rats Exhibiting Estrogenic Response/Number of Rats Treated ([1]; po, 0.3 mg/kg/day, Day 0): 0/8 | Number of Rats Exhibiting Estrogenic Response/Number of Rats Treated ([1]; po, 0.3 mg/kg/day, Day 1): 0/8 | Number of Rats Exhibiting Estrogenic Response/Number of Rats Treated ([1]; po, 0.3 mg/kg/day, Day 2): 1/8 | Number of Rats Exhibiting Estrogenic Response/Number of Rats Treated ([1]; po, 0.3 mg/kg/day, Day 3): 7/8 | Number of Rats Exhibiting Estrogenic Response/Number of Rats Treated ([1]; po, 0.3 mg/kg/day, Day 4): 8/8 | Number of Rats Exhibiting Estrogenic Response/Number of Rats Treated ([1]; po, 0.3 mg/kg/day, Day 5): 8/8 | Number of Rats Exhibiting Estrogenic Response/Number of Rats Treated ([1]; po, 0.3 mg/kg/day, Day 6): 8/8 | Number of Rats Exhibiting Estrogenic Response/Number of Rats Treated ([1]; po, 0.3 mg/kg/day, Day 7): 8/8 | Number of Rats Exhibiting Estrogenic Response/Number of Rats Treated ([1]; po, 1.0 mg/kg/day, Day 0): 0/8 | Number of Rats Exhibiting Estrogenic Response/Number of Rats Treated ([1]; po, 1.0 mg/kg/day, Day 1): 0/8 | Number of Rats Exhibiting Estrogenic Response/Number of Rats Treated ([1]; po, 1.0 mg/kg/day, Day 2): 4/8 | Number of Rats Exhibiting Estrogenic Response/Number of Rats Treated ([1]; po, 1.0 mg/kg/day, Day 3): 8/8 | Number of Rats Exhibiting Estrogenic Response/Number of Rats Treated ([1]; po, 1.0 mg/kg/day, Day 4): 8/8 | Number of Rats Exhibiting Estrogenic Response/Number of Rats Treated ([1]; po, 1.0 mg/kg/day, Day 5): 8/8 | Number of Rats Exhibiting Estrogenic Response/Number of Rats Treated ([1]; po, 1.0 mg/kg/day, Day 6): 8/8 | Number of Rats Exhibiting Estrogenic Response/Number of Rats Treated ([1]; po, 1.0 mg/kg/day, Day 7): 8/8 | Number of Rats Exhibiting Estrogenic Response/Number of Rats Treated ([1]; po, 3.0 mg/kg/day, Day 0): 0/8 | Number of Rats Exhibiting Estrogenic Response/Number of Rats Treated ([1]; po, 3.0 mg/kg/day, Day 1): 0/8 | Number of Rats Exhibiting Estrogenic Response/Number of Rats Treated ([1]; po, 3.0 mg/kg/day, Day 2): 6/8 | Number of Rats Exhibiting Estrogenic Response/Number of Rats Treated ([1]; po, 3.0 mg/kg/day, Day 3): 8/8 | Number of Rats Exhibiting Estrogenic Response/Number of Rats Treated ([1]; po, 3.0 mg/kg/day, Day 4): 8/8 | Number of Rats Exhibiting Estrogenic Response/Number of Rats Treated ([1]; po, 3.0 mg/kg/day, Day 5): 8/8 | Number of Rats Exhibiting Estrogenic Response/Number of Rats Treated ([1]; po, 3.0 mg/kg/day, Day 6): 8/8 | Number of Rats Exhibiting Estrogenic Response/Number of Rats Treated ([1]; po, 3.0 mg/kg/day, Day 7): 8/8 | onset of vaginal cornification (animals responding at days 1-3), po versus sc ([1]; relatively low doses, e.g. 0.1 mg/kg/day): faster in po-treated | onset of vaginal epithelial cornification ([1]; sc 0.1, 0.3, 1.0 and 3.0 mg/kg/day): dose-dependent | Number of Rats Exhibiting Estrogenic Response/Number of Rats Treated ([1]; sc, 0.1 mg/kg/day, Day 0): 0/8 | Number of Rats Exhibiting Estrogenic Response/Number of Rats Treated ([1]; sc, 0.1 mg/kg/day, Day 1): 0/8 | Number of Rats Exhibiting Estrogenic Response/Number of Rats Treated ([1]; sc, 0.1 mg/kg/day, Day 2): 0/8 | Number of Rats Exhibiting Estrogenic Response/Number of Rats Treated ([1]; sc, 0.1 mg/kg/day, Day 3): 1/8 | Number of Rats Exhibiting Estrogenic Response/Number of Rats Treated ([1]; sc, 0.1 mg/kg/day, Day 4): 1/8 | Number of Rats Exhibiting Estrogenic Response/Number of Rats Treated ([1]; sc, 0.1 mg/kg/day, Day 5): 4/8 | Number of Rats Exhibiting Estrogenic Response/Number of Rats Treated ([1]; sc, 0.1 mg/kg/day, Day 6): 3/8 | Number of Rats Exhibiting Estrogenic Response/Number of Rats Treated ([1]; sc, 0.1 mg/kg/day, Day 7): 4/8 | Number of Rats Exhibiting Estrogenic Response/Number of Rats Treated ([1]; sc, 0.3 mg/kg/day, Day 0): 0/8 | Number of Rats Exhibiting Estrogenic Response/Number of Rats Treated ([1]; sc, 0.3 mg/kg/day, Day 1): 0/8 | Number of Rats Exhibiting Estrogenic Response/Number of Rats Treated ([1]; sc, 0.3 mg/kg/day, Day 2): 1/8 | Number of Rats Exhibiting Estrogenic Response/Number of Rats Treated ([1]; sc, 0.3 mg/kg/day, Day 3): 5/8 | Number of Rats Exhibiting Estrogenic Response/Number of Rats Treated ([1]; sc, 0.3 mg/kg/day, Day 4): 7/8 | Number of Rats Exhibiting Estrogenic Response/Number of Rats Treated ([1]; sc, 0.3 mg/kg/day, Day 5): 6/8 | Number of Rats Exhibiting Estrogenic Response/Number of Rats Treated ([1]; sc, 0.3 mg/kg/day, Day 6): 7/8 | Number of Rats Exhibiting Estrogenic Response/Number of Rats Treated ([1]; sc, 0.3 mg/kg/day, Day 7): 7/8 | Number of Rats Exhibiting Estrogenic Response/Number of Rats Treated ([1]; sc, 1.0 mg/kg/day, Day 0): 0/8 | Number of Rats Exhibiting Estrogenic Response/Number of Rats Treated ([1]; sc, 1.0 mg/kg/day, Day 1): 0/8 | Number of Rats Exhibiting Estrogenic Response/Number of Rats Treated ([1]; sc, 1.0 mg/kg/day, Day 2): 1/8 | Number of Rats Exhibiting Estrogenic Response/Number of Rats Treated ([1]; sc, 1.0 mg/kg/day, Day 3): 6/8 | Number of Rats Exhibiting Estrogenic Response/Number of Rats Treated ([1]; sc, 1.0 mg/kg/day, Day 4): 8/8 | Number of Rats Exhibiting Estrogenic Response/Number of Rats Treated ([1]; sc, 1.0 mg/kg/day, Day 5): 7/8 | Number of Rats Exhibiting Estrogenic Response/Number of Rats Treated ([1]; sc, 1.0 mg/kg/day, Day 6): 8/8 | Number of Rats Exhibiting Estrogenic Response/Number of Rats Treated ([1]; sc, 1.0 mg/kg/day, Day 7, 1 mg/kg/day): all rats and 8/8 | Number of Rats Exhibiting Estrogenic Response/Number of Rats Treated ([1]; sc, 3.0 mg/kg/day, Day 0): 0/8 | Number of Rats Exhibiting Estrogenic Response/Number of Rats Treated ([1]; sc, 3.0 mg/kg/day, Day 1): 0/8 | Number of Rats Exhibiting Estrogenic Response/Number of Rats Treated ([1]; sc, 3.0 mg/kg/day, Day 2): 3/8 | Number of Rats Exhibiting Estrogenic Response/Number of Rats Treated ([1]; sc, 3.0 mg/kg/day, Day 3): 8/8 | Number of Rats Exhibiting Estrogenic Response/Number of Rats Treated ([1]; sc, 3.0 mg/kg/day, Day 4): 8/8 | Number of Rats Exhibiting Estrogenic Response/Number of Rats Treated ([1]; sc, 3.0 mg/kg/day, Day 5): 8/8 | Number of Rats Exhibiting Estrogenic Response/Number of Rats Treated ([1]; sc, 3.0 mg/kg/day, Day 6): 8/8 | Number of Rats Exhibiting Estrogenic Response/Number of Rats Treated ([1]; sc, 3.0 mg/kg/day, Day 7, 3 mg/kg/day): all rats and 8/8 | relative binding to estrogen receptors, of 17β-estradiol [2]: 1.5% | relative binding constant compared to 17β-estradiol (100%) [3]: 6.25%
